Results published in ChEMBL document CHEMBL1201862, “PubChem BioAssay data set” (2004).
Calls of active or inactive are those of the source.

Legend:
[1] = Luminescence Cell-Based Dose HTS Response to Identify Inhibitors of 5'UTR Stem-Loop Driven Prion Protein mRNA Translation in H4-C Neuroglioblastoma Cells. [Related pubchem assays (depositor defined):AID1814, AID1827]; assay type: functional
Transthyretin = Transthyretin (Homo sapiens, UniProt P02766); test: Luminescence-based cell-based high throughput dose response assay to identify activators of Transthyretin (TTR) transcription.; assay type: functional
[2] = Luminescence Cell-Based Dose Retest to Confirm Activators of 5'UTR Stem-Loop Driven Alpha-Synuclein mRNA Translation in H4 Neuroglioblastoma Cells. [Related pubchem assays (depositor defined):AID1813, AID1829]; assay type: functional
[3] = Luminescence Cell-Based Dose Response HTS to Identify Activators of 5'UTR Stem-Loop Driven Prion Protein mRNA Translation in H4-C Neuroglioblastoma Cells. [Related pubchem assays: 1829 (Project Summary), 1814 (Primary HTS)]; assay type: functional
BJ [4] = test: cells; assay type: functional, cell-based; conditions: Homo sapiens
[5] = Luminescence Cell-Based Dose Response HTS to Identify Inhibitors of Luciferase Translation or Activity in H4-C Neuroglioblastoma Cells. [Related pubchem assays: 1813 (Primary HTS), 1827 (Project Summary)]; assay type: functional
[6] = cytotoxicity in HEK-293T cells, dose response, cytotoxicity control for TCR NF-kB inhibitor project, luminescence, T-cell screen hits (AID 489026); assay type: functional, cell-based;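 note: cells exposed to compound about 14 hours before the viability readout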
[7] = inhibitors of firefly luciferase expression or activity, dose response, H4 neuroglioma cells, luminescence (AID 1990); assay type: functional, cell-based
[8] = inhibitors of SNCA 5'UTR-driven reporter translation, confirmation, H4 neuroglioma cells, luminescence (AID 1988); assay type: functional, cell-based
[9] = Luminescence Cell-Based Dose Response HTS to Identify Inhibitors of 5'UTR Stem-Loop Driven Prion Protein mRNA Translation in H4 Neuroglioblastoma Cells. [Related pubchem assays: 1827 (Project Summary), 1813 (Primary HTS)]; assay type: functional
BJ [10] = test: cytotoxicity toward BJ-TERT-LT-ST fibroblasts, dose response, cell-based, RAS-independent, luminescence (AID 1935); assay type: functional; conditions: Homo sapiens;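 note: BJ fibroblasts immortalized with TERT plus LT and ST oncogenes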
[11] = Luminescence Cell-Based Dose Response HTS to Identify Activators of Luciferase Translation or Activity in H4-C Neuroglioblastoma Cells. [Related pubchem assays: 1829 (Project Summary), 1814 (Primary HTS)]; assay type: functional
[12] = Luminescence Cell-Based Dose Confirmation HTS to Identify Inhibitors of 5'UTR Stem-Loop Driven Alpha-Synuclein mRNA Translation in H4 Neuroglioblastoma Cells. [Related pubchem assays: 1827 (Project Summary), 1813 (Primary HTS)]; assay type: functional
BJ [13] = test: cytotoxicity toward BJ-TERT fibroblasts, dose response, cell-based, RAS-independent, luminescence (AID 1933); assay type: functional; conditions: Homo sapiens
[14] = cytotoxicity toward DRD oncogenic fibroblasts, dose response, cell-based, non-viral oncogenic, luminescence (AID 1934); assay type: functional; conditions: Homo sapiens
Troponin, cardiac muscle = Troponin, cardiac muscle (Homo sapiens, UniProt P19429+P45379+P63316); test: Fluorescence-based biochemical high throughput dose response assay for activators of the calcium sensitivity of cardiac Regulated Thin Filaments (RTF). [Related pubchem assays (depositor defined):AID493008, AID493018, AID504382, AID504383]; assay type: protein-complex assay
CAAX prenyl protease 2 = biological target: T1, CAAX prenyl protease 2 (Saccharomyces cerevisiae S288c, UniProt Q03530); assay type: biochemical
T1 sequence (Q03530 whole entry): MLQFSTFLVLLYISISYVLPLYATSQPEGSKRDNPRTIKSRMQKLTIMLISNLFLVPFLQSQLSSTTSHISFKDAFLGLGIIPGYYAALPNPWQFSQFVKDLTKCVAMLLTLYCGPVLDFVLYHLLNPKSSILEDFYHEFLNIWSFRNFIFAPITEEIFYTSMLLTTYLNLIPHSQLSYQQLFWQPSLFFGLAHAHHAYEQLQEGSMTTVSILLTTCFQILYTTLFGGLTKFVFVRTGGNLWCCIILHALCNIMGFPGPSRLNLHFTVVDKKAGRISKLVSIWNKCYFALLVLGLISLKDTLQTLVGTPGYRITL

[15] = mammalian cell cytotoxicity, dose response, cytotoxicity control, plate reader, cherry-pick samples (AID 504397); assay type: functional, cell-based
[16] = biological target: Peroxisome proliferator-activated receptor gamma/Nuclear receptor coactivator 3 (Homo sapiens, UniProt P37231); test: (§1) TR-FRET dose response biochemical High Throughput Screening assay for agonists of the steroid receptor coactivator 3 (SRC-3) recruitment by the peroxisome proliferator-activated receptor gamma (PPAR gamma): non-selective agonists. [Related pubchem assays: 1301 (Confirmation screen.), 1048 (Primary screen.)]; assay type: functional
[17] = biological target: Peroxisome proliferator-activated receptor gamma/Nuclear receptor coactivator 1 (Homo sapiens, UniProt P37231); test: as §1, with “1 (SRC-1)” for “3 (SRC-3)”, “assays (depositor defined):AID1300, AID1808, AID504735, AID631]” for “assays: 1301 (Confirmation screen.), 1048 (Primary screen.)]”; assay type: protein assay
[18] = biological target: Peroxisome proliferator-activated receptor gamma/Nuclear receptor coactivator 2 (Homo sapiens, UniProt P37231); test: TR-FRET dose response biochemical High Throughput Screening assay for agonists of the steroid receptor coactivator 2 (SRC-2) recruitment by the peroxisome proliferator-activated receptor gamma (PPAR gamma): non-selective agonists. [Related pubchem assays: 1297, 1032 ]; assay type: functional
Chain of Peroxisome proliferator-activated receptor gamma/Nuclear receptor coactivator 2 (P37231 whole entry): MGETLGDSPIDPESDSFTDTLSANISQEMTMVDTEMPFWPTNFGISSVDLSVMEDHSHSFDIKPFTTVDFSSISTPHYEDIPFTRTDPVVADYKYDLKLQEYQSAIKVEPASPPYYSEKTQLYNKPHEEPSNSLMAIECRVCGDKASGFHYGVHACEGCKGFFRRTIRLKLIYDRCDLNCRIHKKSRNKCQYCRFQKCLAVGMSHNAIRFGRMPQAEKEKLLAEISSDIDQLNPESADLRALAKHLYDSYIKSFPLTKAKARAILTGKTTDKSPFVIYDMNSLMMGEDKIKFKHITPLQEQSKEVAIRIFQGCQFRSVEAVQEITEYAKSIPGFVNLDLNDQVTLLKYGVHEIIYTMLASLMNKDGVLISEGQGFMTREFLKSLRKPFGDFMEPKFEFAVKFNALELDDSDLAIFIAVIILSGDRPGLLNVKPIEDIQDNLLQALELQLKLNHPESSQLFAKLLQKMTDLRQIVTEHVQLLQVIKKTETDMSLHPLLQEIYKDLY
Chain of Peroxisome proliferator-activated receptor gamma/Nuclear receptor coactivator 2 (Q15596 whole entry, further chain): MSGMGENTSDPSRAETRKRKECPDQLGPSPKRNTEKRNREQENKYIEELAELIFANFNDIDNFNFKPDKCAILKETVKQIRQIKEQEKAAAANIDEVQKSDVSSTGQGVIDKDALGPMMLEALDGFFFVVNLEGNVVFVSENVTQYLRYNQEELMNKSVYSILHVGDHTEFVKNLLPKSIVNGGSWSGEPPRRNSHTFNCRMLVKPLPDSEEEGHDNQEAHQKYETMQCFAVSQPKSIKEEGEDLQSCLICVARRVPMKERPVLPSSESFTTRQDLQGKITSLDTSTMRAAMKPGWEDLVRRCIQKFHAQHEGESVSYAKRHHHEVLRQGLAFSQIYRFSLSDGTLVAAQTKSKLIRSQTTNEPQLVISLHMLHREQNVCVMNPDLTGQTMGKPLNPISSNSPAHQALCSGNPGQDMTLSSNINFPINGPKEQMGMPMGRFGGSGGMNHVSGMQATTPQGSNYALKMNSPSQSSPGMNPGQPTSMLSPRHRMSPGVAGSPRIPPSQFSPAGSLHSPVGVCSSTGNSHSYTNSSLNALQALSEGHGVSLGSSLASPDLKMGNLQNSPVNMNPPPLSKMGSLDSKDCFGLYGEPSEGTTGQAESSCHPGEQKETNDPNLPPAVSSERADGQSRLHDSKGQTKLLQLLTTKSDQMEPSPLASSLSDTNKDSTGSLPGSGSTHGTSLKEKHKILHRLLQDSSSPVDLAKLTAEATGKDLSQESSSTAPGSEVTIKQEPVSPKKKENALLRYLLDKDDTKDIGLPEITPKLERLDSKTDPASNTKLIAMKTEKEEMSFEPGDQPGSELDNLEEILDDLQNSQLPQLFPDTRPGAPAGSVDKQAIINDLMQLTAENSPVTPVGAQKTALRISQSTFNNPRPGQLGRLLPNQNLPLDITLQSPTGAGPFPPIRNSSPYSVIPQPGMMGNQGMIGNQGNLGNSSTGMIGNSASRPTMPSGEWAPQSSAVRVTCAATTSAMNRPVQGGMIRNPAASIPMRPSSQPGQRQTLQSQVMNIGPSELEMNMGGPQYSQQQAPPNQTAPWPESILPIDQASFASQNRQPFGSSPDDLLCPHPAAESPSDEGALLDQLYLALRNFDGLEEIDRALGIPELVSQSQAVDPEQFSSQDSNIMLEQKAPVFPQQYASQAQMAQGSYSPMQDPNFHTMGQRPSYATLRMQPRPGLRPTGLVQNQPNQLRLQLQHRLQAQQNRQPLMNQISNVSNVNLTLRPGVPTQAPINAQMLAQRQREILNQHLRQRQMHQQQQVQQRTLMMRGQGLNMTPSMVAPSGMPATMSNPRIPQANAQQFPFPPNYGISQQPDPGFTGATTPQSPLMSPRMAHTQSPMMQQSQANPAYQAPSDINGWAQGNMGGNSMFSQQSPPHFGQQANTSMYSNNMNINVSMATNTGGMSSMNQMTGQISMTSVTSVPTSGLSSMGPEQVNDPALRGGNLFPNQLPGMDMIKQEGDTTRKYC

[19] = biological target: T2, G-protein coupled receptor 35 (Homo sapiens, UniProt Q9HC97); test: SAR analysis of Agonists of the GPR35 Receptor using an Image-Based Assay - Set 3. [Related pubchem assays (depositor defined):AID1961, AID1965]; assay type: functional
T2 sequence (Q9HC97 whole entry): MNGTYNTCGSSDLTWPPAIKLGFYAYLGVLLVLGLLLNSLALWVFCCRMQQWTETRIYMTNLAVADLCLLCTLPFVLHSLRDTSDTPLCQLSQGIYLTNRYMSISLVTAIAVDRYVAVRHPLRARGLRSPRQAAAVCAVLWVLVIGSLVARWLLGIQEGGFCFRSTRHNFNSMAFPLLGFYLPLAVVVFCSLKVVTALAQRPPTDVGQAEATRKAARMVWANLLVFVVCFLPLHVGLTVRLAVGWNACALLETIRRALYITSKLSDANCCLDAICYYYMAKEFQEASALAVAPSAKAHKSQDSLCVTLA

Cannabinoid receptor 2 [20] = biological target: T3, Cannabinoid receptor 2 (Homo sapiens, UniProt P34972); test: SAR analysis of agonists of the Cannabinoid Receptor 2 using an Image-Based Assay - Set 2. [Related pubchem assays (depositor defined):AID1961, AID1965]; assay type: functional
T3 sequence (P34972 whole entry): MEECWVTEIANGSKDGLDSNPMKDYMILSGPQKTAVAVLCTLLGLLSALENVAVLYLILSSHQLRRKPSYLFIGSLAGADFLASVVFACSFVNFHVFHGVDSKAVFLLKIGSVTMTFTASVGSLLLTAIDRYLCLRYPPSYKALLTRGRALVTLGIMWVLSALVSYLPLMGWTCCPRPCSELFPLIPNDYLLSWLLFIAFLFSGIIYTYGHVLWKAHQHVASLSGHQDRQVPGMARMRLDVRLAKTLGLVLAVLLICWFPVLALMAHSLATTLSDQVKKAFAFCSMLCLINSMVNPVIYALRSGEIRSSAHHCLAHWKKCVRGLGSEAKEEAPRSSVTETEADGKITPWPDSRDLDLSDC

Cannabinoid receptor 1 [21] = biological target: T4, Cannabinoid receptor 1 (Homo sapiens, UniProt P21554); test: SAR analysis of antagonists of the Cannabinoid Receptor 1 using an Image-Based Assay - Set 3. [Related pubchem assays (depositor defined):AID1961, AID1965]; assay type: functional
T4 sequence (P21554 whole entry): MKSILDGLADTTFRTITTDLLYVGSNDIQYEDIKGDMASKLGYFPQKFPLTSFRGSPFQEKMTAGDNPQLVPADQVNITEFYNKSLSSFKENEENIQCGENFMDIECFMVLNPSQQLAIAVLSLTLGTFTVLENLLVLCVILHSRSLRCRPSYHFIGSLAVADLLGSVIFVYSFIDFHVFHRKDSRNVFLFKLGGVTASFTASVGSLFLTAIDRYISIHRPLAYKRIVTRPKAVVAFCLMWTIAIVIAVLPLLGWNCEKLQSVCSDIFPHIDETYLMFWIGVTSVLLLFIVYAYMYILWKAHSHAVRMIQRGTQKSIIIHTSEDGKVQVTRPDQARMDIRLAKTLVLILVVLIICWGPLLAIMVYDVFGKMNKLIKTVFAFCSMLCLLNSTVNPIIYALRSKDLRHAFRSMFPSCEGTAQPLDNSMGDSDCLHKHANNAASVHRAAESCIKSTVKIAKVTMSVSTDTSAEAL

Cannabinoid receptor 2 [22] = biological target: T3, Cannabinoid receptor 2; test: SAR analysis of antagonists of the Cannabinoid Receptor 2 using an Image-Based Assay - Set 2. [Related pubchem assays (depositor defined):AID1961, AID1965]; assay type: functional
[23] = biological target: T2, G-protein coupled receptor 35; test: SAR analysis of Antagonists of the GPR35 Receptor using an Image-Based Assay - Set 4. [Related pubchem assays (depositor defined):[…]]; assay type: functional
[24] = biological target: G-protein coupled receptor 55 (Homo sapiens, UniProt Q9Y2T6); test: SAR analysis of selective Agonists of GPR55 using an Image-Based Assay - Set 2. [Related pubchem assays (depositor defined):AID1961, AID1965]; assay type: functional
Chain of G-protein coupled receptor 55 (Q9Y2T6 whole entry): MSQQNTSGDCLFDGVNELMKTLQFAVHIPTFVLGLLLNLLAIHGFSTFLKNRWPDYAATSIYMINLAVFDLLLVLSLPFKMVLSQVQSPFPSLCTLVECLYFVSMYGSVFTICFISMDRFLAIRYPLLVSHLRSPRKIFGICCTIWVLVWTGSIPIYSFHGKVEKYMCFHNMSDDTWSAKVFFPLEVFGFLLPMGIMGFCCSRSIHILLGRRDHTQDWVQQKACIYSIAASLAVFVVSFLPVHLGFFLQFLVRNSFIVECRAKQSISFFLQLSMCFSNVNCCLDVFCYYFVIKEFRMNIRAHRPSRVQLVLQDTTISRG

Cannabinoid receptor 1 [25] = biological target: T4, Cannabinoid receptor 1; test: SAR analysis of agonists of the Cannabinoid Receptor 1 using an Image-Based Assay - Set 3. [Related pubchem assays (depositor defined):AID1961, AID1965]; assay type: functional

With `CCOC(=O)Nc1nc(-c2ccccc2)c(C(=O)c2ccc(Cl)cc2)s1` the EC50 [1] was 1.95 µM (active), the EC50 (Transthyretin) was > 167 µM (inactive) and the EC50 [2] was 1.76 µM (inconclusive). The EC50 [3] was 1.95 µM (inconclusive), the EC50 (BJ [4]) was 15.6 µM (active) and the EC50 [5] was 2.32 µM (active). The IC50 [6] was > 80 µM (inactive), the EC50 [7] was 5.3 µM (active) and the EC50 [8] was 0.108 µM (active). For the same molecule, the EC50 [9] was 3.25 µM (active), the EC50 (BJ [10]) was 1.45 µM (inconclusive) and the EC50 [11] was 2.32 µM (inconclusive). For the same molecule, the EC50 [12] was 1.76 µM (active), the EC50 (BJ [13]) was 1.26 µM (inconclusive) and the EC50 [14] was 1.28 µM (active).

For `O=[n+]1c2c(n([O-])c3ccccc31)CCC2`, the EC50 (Troponin, cardiac muscle) was > 71.5 µM (inactive).

For `O=C(Nc1ccc(N2CCOCC2)c(Cl)c1)c1cc2ccccc2o1`, the AC50 (CAAX prenyl protease 2) was 3.46 µM (active) and the AC50 [15] was 260 µM (active).

With `c1cc2c(cnc3cscc32)s1` the EC50 [16] was 69.3 µM (not active), the EC50 [17] was 8.78 µM (active) and the EC50 [18] was 12 µM (not active).

With `Cc1ccccc1N1CCN(C(=O)c2cc(S(=O)(=O)N3CCCCC3)ccc2N2CCCC2)CC1` the EC50 [19] was > 32 µM (inactive), the EC50 (Cannabinoid receptor 2 [20]) was > 32 µM (inactive) and the IC50 (Cannabinoid receptor 1 [21]) was > 32 µM (inactive). The IC50 (Cannabinoid receptor 2 [22]) was > 32 µM (inactive), the IC50 [23] was > 32 µM (inactive) and the EC50 [24] was > 32 µM (inactive). The EC50 (Cannabinoid receptor 1 [25]) was > 32 µM (inactive).
